Reference: US20260083865A1, “PROSTATE SPECIFIC MEMBRANE ANTIGEN (PSMA) LIGANDS AND USE THEREOF” (priority 2022, published 2026)
Where two headings read alike, the source gives them in different places. Numbered stars: 1 amine (or outer) side, 2 acyl side, 3 side chain; on linkers, the order of the positions; unused ones are H or OH. Bridge positions count the residues as written; N and C are the ends. Square brackets hold non-standard residues; d marks the D form. Side chains are listed from the residue outwards. Peptide text beside a SMILES is read from it. * marks the point of attachment. DOTA = O=C(O)CN1CCN(CC(=O)O)CCN(CC(=O)*)CCN(CC(=O)O)CC1; Phe(4-Cl) = N[C@@H](Cc1ccc(Cl)cc1)C(=O)O; Phe(4-Me) = Cc1ccc(C[C@H](N)C(=O)O)cc1; Arg(Me) = CNC(=N)NCCC[C@H](N)C(=O)O; Ethylenediamine = C(CN[*:2])N[*:1]; d(αMeD) = C[C@@](N)(CC(=O)O)C(=O)O; X1 = O=C(CC1CCN([*:1])CC1)[*:2]; Lys(Me) = CNCCCC[C@H](N)C(=O)O; Tle = CC(C)(C)[C@H](N)C(=O)O; 4Amb = NCc1ccc(C(=O)O)cc1; αMeS = C[C@](N)(CO)C(=O)O; Deg = CCC(N)(CC)C(=O)O; AEEA = NCCOCCOCC(=O)O; Aib = CC(C)(N)C(=O)O; X8 = O=C(CC1CCNCC1)*; Ahx = NCCCCCC(=O)O

Experiments:
[1] = biological target: T1, PSMA-expressing C4-2 cells (Homo sapiens, UniProt Q04609); assay: FACS binding assay (competition with 50 nM PSM-0183); conditions: read-out: pIC50 [C4-2] CAT (converted)
T1 construct: PSMA-expressing C4-2 cells (ATCC, Cat. No. CRL-3314) were cultured in RPMI-1640; host or cells: C4-2 cells
T1 sequence (Q04609 whole entry): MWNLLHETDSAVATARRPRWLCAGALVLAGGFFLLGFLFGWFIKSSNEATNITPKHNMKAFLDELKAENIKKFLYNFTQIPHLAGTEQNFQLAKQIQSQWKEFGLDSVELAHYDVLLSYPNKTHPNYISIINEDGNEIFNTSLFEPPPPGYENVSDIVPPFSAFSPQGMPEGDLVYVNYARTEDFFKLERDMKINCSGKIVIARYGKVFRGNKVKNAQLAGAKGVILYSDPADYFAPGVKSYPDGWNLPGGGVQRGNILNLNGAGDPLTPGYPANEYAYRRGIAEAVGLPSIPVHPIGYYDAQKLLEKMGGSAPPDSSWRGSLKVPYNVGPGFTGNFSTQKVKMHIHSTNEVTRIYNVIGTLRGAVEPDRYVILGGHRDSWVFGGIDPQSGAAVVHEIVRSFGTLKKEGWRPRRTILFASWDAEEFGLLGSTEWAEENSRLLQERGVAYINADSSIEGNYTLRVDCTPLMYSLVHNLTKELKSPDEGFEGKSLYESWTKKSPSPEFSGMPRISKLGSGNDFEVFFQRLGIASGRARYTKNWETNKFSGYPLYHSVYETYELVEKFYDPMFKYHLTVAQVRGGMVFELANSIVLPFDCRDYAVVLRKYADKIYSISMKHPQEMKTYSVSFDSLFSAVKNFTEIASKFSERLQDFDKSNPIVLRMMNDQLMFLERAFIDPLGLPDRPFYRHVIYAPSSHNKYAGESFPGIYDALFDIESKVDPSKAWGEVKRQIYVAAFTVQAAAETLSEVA
Summary of the method: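 Competition format: fluorescent tracer PSM-0183 (50 nM) displaced from PSMA on C4-2 cells by a test compound titration over 1 h at 4 °C. Bound tracer was quantified as flow-cytometric AF488 median fluorescence after washing. Four-parameter logistic fits of MFI data gave IC50 and pIC50.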

[2] = biological target: T2, Fc-fusion protein of human PSMA (hPSMA-Fc) (Homo sapiens, UniProt Q04609); assay: Surface plasmon resonance assay (Biacore T200, single cycle kinetic); format: binding; conditions: hPSMA-Fc, 25° C., read-out: pKD CAT (converted)
T2 construct: purchased Acro Biosystems PSA-H5264
T2 sequence (Q04609 44-750 limits assumed): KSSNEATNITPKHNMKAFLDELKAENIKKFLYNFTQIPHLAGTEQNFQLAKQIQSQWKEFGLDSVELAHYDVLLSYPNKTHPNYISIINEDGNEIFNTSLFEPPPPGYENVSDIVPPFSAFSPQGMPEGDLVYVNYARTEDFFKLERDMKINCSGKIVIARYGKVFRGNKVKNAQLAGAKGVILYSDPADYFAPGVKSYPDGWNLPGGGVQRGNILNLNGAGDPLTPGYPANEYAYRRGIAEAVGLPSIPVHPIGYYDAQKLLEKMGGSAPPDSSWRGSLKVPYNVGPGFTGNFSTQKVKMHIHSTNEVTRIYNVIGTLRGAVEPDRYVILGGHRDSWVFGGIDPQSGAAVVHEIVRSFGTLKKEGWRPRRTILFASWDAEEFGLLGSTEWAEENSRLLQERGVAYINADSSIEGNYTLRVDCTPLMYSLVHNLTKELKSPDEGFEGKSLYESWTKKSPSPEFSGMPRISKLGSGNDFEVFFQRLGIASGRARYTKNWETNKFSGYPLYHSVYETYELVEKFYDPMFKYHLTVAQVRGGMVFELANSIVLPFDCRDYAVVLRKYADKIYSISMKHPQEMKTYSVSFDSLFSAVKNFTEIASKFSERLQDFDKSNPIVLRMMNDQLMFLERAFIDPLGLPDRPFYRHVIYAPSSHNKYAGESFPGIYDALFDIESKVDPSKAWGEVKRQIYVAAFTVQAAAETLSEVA
Summary of the method: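 KD, expressed as pKD, came from 1:1 Langmuir fits of reference- and buffer-blank-subtracted SPR data. The runs were single-cycle kinetics at 25° C in HBST/0.1% DMSO over human PSMA-Fc, captured to ~1000 RU on a peptide-coated CM5 surface and regenerated with 10 mM glycine pH 1.5.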

[3] = pIC50 category of FACS binding, C4-2 cells
[4] = pKD category for PSMA SPR activity assay

Row | IC50 ([1]; FACS binding, PSMA-expressing C4-2 cells, pIC50 category) [nM] | Kd ([2]; PSMA SPR assay, pKD category) [nM] | IC50 [1, 3] [nM] | Kd [2, 4] [nM] | Compound
1 |  |  | < 200 | < 12.6 | CCC1(CC)NC(=O)[C@H](CCCNC(=N)N)NC(=O)[C@H](CCCCN)NC(=O)[C@@H](NC(=O)[C@H](Cc2ccccc2)NC(=O)C(C)(C)NC(=O)[C@@H](NC(C)=O)[C@@H](C)O)CSSC[C@@H](C(=O)N[C@H](C(=O)N[C@H](C(N)=O)[C@@H](C)O)C(C)(C)C)NC(=O)[C@H](CC(N)=O)NC1=O [PSM-0375, Ac-Thr-Aib-Phe-[Cys-Lys-Arg-Deg-Asn-Cys]-Tle-Thr-NH2] (Ac-T[Aib]FCKR[Deg]NC[Tle]T-NH2; disulfide 4-9)
2 |  |  | < 200 | < 12.6 | CC(=O)N[C@H](C(=O)NC(C)(C)C(=O)N[C@@H](Cc1ccccc1)C(=O)N[C@H]1CSSC[C@@H](C(=O)N[C@H](C(=O)N[C@@H](Cc2c[nH]c3ccccc23)C(N)=O)C(C)(C)C)NC(=O)[C@H](CC(N)=O)NC(=O)C(C)(C)NC(=O)[C@H](CCCNC(=N)N)NC(=O)[C@H](CCCCN)NC1=O)[C@@H](C)O [PSM-0376, Ac-Thr-Aib-Phe-[Cys-Lys-Arg-Aib-Asn-Cys]-Tle-Trp-NH2] (Ac-T[Aib]FCKR[Aib]NC[Tle]W-NH2; disulfide 4-9)
3 |  |  | < 200 | < 12.6 | C[C@@H](O)[C@H](NC(=O)CC1CCNCC1)C(=O)NC(C)(C)C(=O)N[C@@H](Cc1ccccc1)C(=O)N[C@H]1CSSC[C@@H](C(=O)N[C@H](C(=O)N[C@H](C(=O)N2CCC(CC(=O)N[C@H](CCCCNC(=O)CN3CCN(CC(=O)O)CCN(CC(=O)O)CCN(CC(=O)O)CC3)C(N)=O)CC2)[C@@H](C)O)C(C)(C)C)NC(=O)[C@H](CC(N)=O)NC(=O)C(C)(C)NC(=O)[C@H](CCCNC(=N)N)NC(=O)[C@H](CCCCN)NC1=O [PSM-0378, H-Cmp-Thr-Aib-Phe-[Cys-Lys-Arg-Aib-Asn-Cys]-Tle-Thr-Cmp-lys(DOTA)-NH2] (X8-T[Aib]FCKR[Aib]NC[Tle]T[X1][dK](DOTA)-NH2; disulfide 4-9)
4 |  |  | < 200 | < 12.6 | CC(=O)N1CCC(CC(=O)N[C@H](C(=O)NC(C)(C)C(=O)N[C@@H](Cc2ccc(Cl)cc2)C(=O)N[C@H]2CSSC[C@@H](C(=O)N[C@H](C(=O)NCCNC(=O)CN3CCN(CC(=O)O)CCN(CC(=O)O)CCN(CC(=O)O)CC3)C(C)(C)C)NC(=O)[C@H](CC(N)=O)NC(=O)C(C)(C)NC(=O)[C@H](CCCNC(=N)N)NC(=O)[C@H](CCCCN)NC2=O)[C@@H](C)O)CC1 [PSM-0379, Ac-Cmp-Thr-Aib-Pcf-[Cys-Lys-Arg-Aib-Asn-Cys]-Tle-en-DOTA] (Ac-[X1]T[Aib][Phe(4-Cl)]CKR[Aib]NC[Tle]-{Ethylenediamine-DOTA}; disulfide 5-10)
5 |  |  | < 200 | < 12.6 | CNCCCC[C@@H]1NC(=O)[C@@H](NC(=O)[C@H](Cc2ccc(Cl)cc2)NC(=O)C(C)(C)NC(=O)[C@@H](NC(=O)CC2CCN(C(=O)CN3CCN(CC(=O)O)CCN(CC(=O)O)CCN(CC(=O)O)CC3)CC2)[C@@H](C)O)CSSC[C@@H](C(=O)N[C@H](C(N)=O)C(C)(C)C)NC(=O)[C@H](CC(N)=O)NC(=O)C(C)(C)NC(=O)[C@H](CCCNC(=N)NC)NC1=O [PSM-0380, DOTA-Cmp-Thr-Aib-Pcf-[Cys-Lys(Me)-Arg(Me)-Aib-Asn-Cys]-Tle-NH2] ({DOTA}-[X1]T[Aib][Phe(4-Cl)]C[Lys(Me)][Arg(Me)][Aib]NC[Tle]-NH2; disulfide 5-10)
6 |  |  | < 200 | < 12.6 | CC(C)(NC(=O)c1ccc(CNC(=O)CN2CCN(CC(=O)O)CCN(CC(=O)O)CCN(CC(=O)O)CC2)cc1)C(=O)N[C@@H](Cc1ccc(Cl)cc1)C(=O)N[C@H]1CSSC[C@@H](C(=O)N[C@H](C(N)=O)C(C)(C)C)NC(=O)[C@H](CC(N)=O)NC(=O)C(C)(C)NC(=O)[C@H](CCCNC(=N)N)NC(=O)[C@H](CCCCN)NC1=O [PSM-0381, DOTA-Pamb-Aib-Pcf-[Cys-Lys-Arg-Aib-Asn-Cys]-Tle-NH2] ({DOTA-4Amb}-[Aib][Phe(4-Cl)]CKR[Aib]NC[Tle]-NH2; disulfide 3-8)
7 |  |  | < 200 | < 12.6 | C[C@@H](O)[C@H](NC(=O)[C@@H](NC(=O)[C@@H]1CSSC[C@H](NC(=O)[C@H](Cc2ccc(Cl)cc2)NC(=O)C(C)(C)NC(=O)[C@@H](NC(=O)CC2CCN(C(=O)CN3CCN(CC(=O)O)CCN(CC(=O)O)CCN(CC(=O)O)CC3)CC2)[C@@H](C)O)C(=O)N[C@@H](CCCCN)C(=O)N[C@@H](CCCNC(=N)N)C(=O)N[C@@](C)(CO)C(=O)N[C@@H](CC(N)=O)C(=O)N1)C(C)(C)C)C(N)=O [PSM-0382, DOTA-Cmp-Thr-Aib-Pcf-[Cys-Lys-Arg-Ams-Asn-Cys]-Tle-Thr-NH2] ({DOTA}-[X1]T[Aib][Phe(4-Cl)]CKR[αMeS]NC[Tle]T-NH2; disulfide 5-10)

Continued, compound first:

Row | Compound | IC50 ([1]; FACS binding, PSMA-expressing C4-2 cells, pIC50 category) [nM] | Kd ([2]; PSMA SPR assay, pKD category) [nM] | IC50 [1, 3] [nM] | Kd [2, 4] [nM]
8 | CC(=O)N[C@H](C(=O)NC(C)(C)C(=O)N[C@@H](Cc1ccccc1)C(=O)N[C@H]1CSSC[C@@H](C(=O)N[C@H](C(=O)N[C@H](C(=O)N[C@@H](CC(=O)O)C(N)=O)[C@@H](C)O)C(C)(C)C)NC(=O)[C@H](CC(N)=O)NC(=O)[C@H](C)NC(=O)[C@H](CCC(=O)O)NC(=O)[C@H](CCCCN)NC1=O)[C@@H](C)O [PSM-0363, Ac-Thr-Aib-Phe-[Cys-Lys-Glu-Ala-Asn-Cys]-Tle-Thr-Asp-NH2] (Ac-T[Aib]FCKEANC[Tle]TD-NH2; disulfide 4-9) | 200 to 1260 | < 12.6 |  | 
9 | C[C@@H](O)[C@H](NC(=O)[C@@H](NC(=O)[C@@H]1CSSC[C@H](NC(=O)[C@H](Cc2ccc(Cl)cc2)NC(=O)[C@@](C)(CC(=O)O)NC(=O)[C@@H](NC(=O)CC2CCN(C(=O)CN3CCN(CC(=O)O)CCN(CC(=O)O)CCN(CC(=O)O)CC3)CC2)[C@@H](C)O)C(=O)N[C@@H](CCCCN)C(=O)N[C@@H](CCCNC(=N)N)C(=O)NC(C)(C)C(=O)N[C@@H](CC(N)=O)C(=O)N1)C(C)(C)C)C(N)=O [PSM-0366, DOTA-Cmp-Thr-amd-Pcf-[Cys-Lys-Arg-Aib-Asn-Cys]-Tle-Thr-NH2] ({DOTA}-[X1]T[d(αMeD)][Phe(4-Cl)]CKR[Aib]NC[Tle]T-NH2; disulfide 5-10) |  |  | 200 to 1260 | 126 to 501
10 | CC(=O)N[C@H](C(=O)NC(C)(C)C(=O)N[C@@H](Cc1ccc(Cl)cc1)C(=O)N[C@H]1CSSC[C@@H](C(=O)N[C@H](C(N)=O)C(C)(C)C)NC(=O)[C@H](CC(N)=O)NC(=O)C(C)(C)NC(=O)[C@H](CCCNC(=N)N)NC(=O)[C@H](CCCCN)NC1=O)[C@@H](C)O [PSM-0367, Ac-Thr-Aib-Pcf-[Cys-Lys-Arg-Aib-Asn-Cys]-Tle-NH2] (Ac-T[Aib][Phe(4-Cl)]CKR[Aib]NC[Tle]-NH2; disulfide 4-9) |  |  | < 200 | < 12.6
11 | C[C@@H](O)[C@H](NC(=O)[C@@H](NC(=O)[C@@H]1CSSC[C@H](NC(=O)[C@H](Cc2ccccc2)NC(=O)C(C)(C)NC(=O)[C@@H](NC(=O)CCCCCNC(=O)CN2CCN(CC(=O)O)CCN(CC(=O)O)CCN(CC(=O)O)CC2)[C@@H](C)O)C(=O)N[C@@H](CCCCN)C(=O)N[C@@H](CCCNC(=N)N)C(=O)NC(C)(C)C(=O)N[C@@H](CC(N)=O)C(=O)N1)C(C)(C)C)C(N)=O [PSM-0368, DOTA-Ahx-Thr-Aib-Phe-[Cys-Lys-Arg-Aib-Ass-Cys]-Tle-Thr-NH2] ({DOTA-Ahx}-T[Aib]FCKR[Aib]NC[Tle]T-NH2; disulfide 4-9) |  |  | < 200 | < 12.6
12 | C[C@@H](O)[C@H](NC(=O)[C@@H](NC(=O)[C@@H]1CSSC[C@H](NC(=O)[C@H](Cc2ccc(Cl)cc2)NC(=O)[C@](C)(CO)NC(=O)[C@@H](NC(=O)CC2CCN(C(=O)CN3CCN(CC(=O)O)CCN(CC(=O)O)CCN(CC(=O)O)CC3)CC2)[C@@H](C)O)C(=O)N[C@@H](CCCCN)C(=O)N[C@@H](CCCNC(=N)N)C(=O)NC(C)(C)C(=O)N[C@@H](CC(N)=O)C(=O)N1)C(C)(C)C)C(N)=O [PSM-0369, DOTA-Cmp-Thr-Ams-Pcf-[Cys-Lys-Arg-Aib-Asn-Cys]-Tle-Thr-NH2] ({DOTA}-[X1]T[αMeS][Phe(4-Cl)]CKR[Aib]NC[Tle]T-NH2; disulfide 5-10) |  |  | < 200 | < 12.6
13 | CC(=O)N[C@H](C(=O)NC(C)(C)C(=O)N[C@@H](Cc1ccc(Cl)cc1)C(=O)N[C@H]1CSSC[C@@H](C(=O)N[C@H](C(=O)N[C@H](C(N)=O)[C@@H](C)O)C(C)(C)C)NC(=O)[C@H](CC(N)=O)NC(=O)[C@H](CCCCNC(=O)COCCOCCNC(=O)CN2CCN(CC(=O)O)CCN(CC(=O)O)CCN(CC(=O)O)CC2)NC(=O)[C@H](CCCNC(=N)N)NC(=O)[C@H](CCCCN)NC1=O)[C@@H](C)O [PSM-0370, Ac-Thr-Aib-Pcf-[Cys-Lys-Arg-Lys(DOTA-020c)-Asn-Cys]-Tle-Thr-NH2] (Ac-T[Aib][Phe(4-Cl)]CKRK([AEEA-DOTA])NC[Tle]T-NH2; disulfide 4-9) |  |  | < 200 | < 12.6
14 | CC(=O)N[C@H](C(=O)NC(C)(C)C(=O)N[C@@H](Cc1ccc(C)cc1)C(=O)N[C@H]1CSSC[C@@H](C(=O)N[C@H](C(=O)N[C@H](C(N)=O)[C@@H](C)O)C(C)(C)C)NC(=O)[C@H](CC(N)=O)NC(=O)C(C)(C)NC(=O)[C@H](CCCNC(=N)N)NC(=O)[C@H](CCCCN)NC1=O)[C@@H](C)O [PSM-0372, Ac-Thr-Aib-Pmf-[Cys-Lys-Arg-Aib-Asn-Cys]-Tle-Thr-NH2] (Ac-T[Aib][Phe(4-Me)]CKR[Aib]NC[Tle]T-NH2; disulfide 4-9) |  |  | < 200 | < 12.6
